Experimental data as given in patent publication US20090093482A1, “THERAPEUTIC COMPOSITIONS AND METHODS” (Gilead Sciences, Inc., priority 2007, published 2009).
“And” between values parts separate entries of the source, which are not always exact repeats. Identical values can stand only once.

Tests used:
[1] = Pharmacokinetic interaction between lopinavir/r and the Compound, steady-state PK in healthy volunteers; type: in vivo, human; settings: for Exposures when coadministered with the Compound: LPV/r 400/100 mg BID + the Compound 125 mg QD; for AUCtau % GMR (90% CI) / Cmax % GMR (90% CI) / Ctau % GMR (90% CI): 14-day periods
[2] = Compartmental modeling in WinNonlin of Compound doses using the observed lopinavir interaction data; set-up: species or system human; settings: modeled
Excerpt: Consideration was given to achieving equivalent Compound exposures in patients receiving and not receiving lopinavir using pharmacokinetic (bio-) equivalence comparisons (Pharsight Corporation, Mountain View, Calif., USA). Consideration was also given to minimizing the number of individuals with extreme outliers in (low or high) exposures.

[3] = LPV/r 400/100 mg BID + the Compound 125 mg QD vs LPV/r 400/100 mg BID alone, n = 13
[4] = the Compound 125 mg QD + LPV/r 400/100 mg BID vs the Compound/r 125/100 mg QD alone, n = 14

SMILES	Exposures when coadministered with the Compound [1]	AUCtau % GMR (90% CI) [1, 3]	Cmax % GMR (90% CI) [1, 3]	Ctau % GMR (90% CI) [1, 3]	Trough concentrations when coadministered with the Compound ([1]; relative to recommended target troughs)	AUCtau % GMR (90% CI) [1, 4]	Cmax % GMR (90% CI) [1, 4]	Ctau % GMR (90% CI) [1, 4]	Reduction in the dose of the Compound with lopinavir while maintaining an equivalent exposure [2]	Dose of the Compound with lopinavir/r giving systemic exposure (AUC) similar to a 150 mg dose without lopinavir ([2]; reference is the 150 mg ritonavir-boosted dose without lopinavir)	Dose of the Compound with lopinavir/r giving systemic exposure (AUC) similar to a 300 mg dose without lopinavir ([2]; reference is the 300 mg ritonavir-boosted dose without lopinavir)
Cc1cccc(C)c1OCC(=O)N[C@@H](Cc1ccccc1)[C@@H](O)C[C@H](Cc1ccccc1)NC(=O)[C@H](C(C)C)N1CCCNC1=O [LPV, (2S)-N-[(2S,4S,5S)-5-{[2-(2,6-dimethyl-phenoxy)acetyl]amino}-4-hydroxy-1,6-diphenyl-hexan-2-yl]-3-methyl-2-(2-oxo-1,3-diazinan-1-yl)butanamide]	unaltered	96.6%	99.2%	92.3%	maintained above recommended target troughs						
CC(C)c1nc(CN(C)C(=O)NC(C(=O)NC(Cc2ccccc2)CC(O)C(Cc2ccccc2)NC(=O)OCc2cncs2)C(C)C)cs1 (stereo not drawn) [RTV, 1,3-thiazol-5-ylmethyl[3-hydroxy-5-[3-methyl-2-[methyl-[(2-propan-2-yl-1,3-thiazol-4-yl)methyl]carbamoyl]amino-butanoyl]amino-1,6-diphenyl-hexan-2-yl]aminoformate]	unaltered	103%	114%	88.3%							
COc1cc2c(cc1Cc1cccc(Cl)c1F)c(=O)c(C(=O)O)cn2[C@H](CO)C(C)C [the Compound, 6-(3-chloro-2-fluorobenzyl)-1-[(2S)-1-hydroxy-3-methylbutan-2-yl]-7-methoxy-4-oxo-1,4-dihydroquinoline-3-carboxylic acid]						175 (150, 204) %	152 (129, 179) %	238 (181, 313) %	40-60%	85 mg and 85 ± 10 mg	150 mg
